From patent US9029337B2, “Modulation of factor 7 expression” (Isis Pharmaceuticals, Inc., priority 2007, dated 2015)
Strand notation (5' to 3'): a small letter for the sugar, then the base; units joined by * are phosphorothioate-linked, units joined directly phosphodiester-linked; [ ] holds rarer units or linkages, { } end groups; capitals alone tell only the bases. e = 2'-O-(2-methoxyethyl) (MOE); [5mC] = 5-methylcytosine; d = 2'-deoxy (DNA)

Test system: human Factor 7 mRNA
Test: Antisense inhibition of human Factor 7 mRNA in HepB3 cells, 50 nM antisense oligonucleotide, lipofectin
Assay type: cell-based
Conditions: for % Inhibition: lipofectin, approximately 24 hours; for % Inhibition of human Factor 7 mRNA levels: gapmers targeted to nucleobases 4868 to 4899 of SEQ ID NO: 1, Table 8
How it was run: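 Percent inhibition of Factor 7 mRNA, relative to untreated control, comes from real-time RT-PCR with RIBOGREEN normalization, using primer probe set RTS 2927 in some runs. RNA was taken roughly 24 h after lipofectin delivery of 50 nM oligonucleotide into HepB3 cells.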

[1] = oligonucleotides targeted to nucleobases 11830 to 11869 of SEQ ID NO: 1 (Table 9)
[2] = oligonucleotides targeted to nucleobases 13760 to 13789 of SEQ ID NO: 1 (Table 10)
[3] = 50 nM antisense oligonucleotide, Factor 7 mRNA by real-time RT-PCR (RTS 2927), relative to untreated control
[4] = Table 1, 50 nM, relative to untreated control cells

For “422165 (antisense eG*eG*eA*dG*dA*d[5mC]*dA*dA*dT*dG*dG*dT*d[5mC]*dA*dG*dG*dG*e[5mC]*eT*eG) [compound 422165]”, the “% Inhibition (human Factor 7 mRNA levels)” value [1] was 57%.
With “422111 (antisense e[5mC]*eA*e[5mC]*e[5mC]*e[5mC]*dG*d[5mC]*d[5mC]*dG*dG*d[5mC]*dT*d[5mC]*dT*dG*e[5mC]*eT*e[5mC]*eA*eT) [compound 422111]” the “% Inhibition (human Factor 7 mRNA levels)” value [2] was 37%.
In the case of “416503 (antisense eT*eA*eG*e[5mC]*e[5mC]*dA*d[5mC]*d[5mC]*d[5mC]*d[5mC]*dG*d[5mC]*dG*dG*dG*e[5mC]*eT*eG*eG*e[5mC]) [compound 416503]”, the “% Inhibition” value [3] is reported as 0%.
For “422137 (antisense eA*e[5mC]*eA*eG*e[5mC]*dA*d[5mC]*dA*d[5mC]*dA*dT*dG*dG*dA*dG*eT*e[5mC]*eA*eG*e[5mC]) [compound 422137]”, the “% Inhibition (human Factor 7 mRNA levels)” value (oligonucleotides targeted to nucleobases 15098 to 15122 of SEQ ID NO: 1 (Table 12)) was 45%.
For “416489 (antisense eG*eT*eG*e[5mC]*eA*dG*d[5mC]*dT*dT*dG*d[5mC]*d[5mC]*dA*dG*dG*eT*e[5mC]*e[5mC]*eT*e[5mC]) [compound 416489]”, the “% Inhibition” value [3] was 38%.
For “407957 (antisense eG*eG*e[5mC]*e[5mC]*eT*dG*dG*dG*dA*dA*d[5mC]*dT*dT*dG*d[5mC]*eA*eT*eT*eT*eA) [compound 407957]”, the “% Inhibition” value [4] was 52%.
With “407914 (antisense e[5mC]*e[5mC]*eA*eG*e[5mC]*dT*dG*dA*d[5mC]*dG*dA*dT*dG*d[5mC]*d[5mC]*e[5mC]*eG*eT*e[5mC]*eA) [compound 407914]” the “% Inhibition” value [4] was 82%.
In the case of “422266 (antisense e[5mC]*eG*d[5mC]*dG*dG*dA*dA*dG*dA*dA*dG*dG*dG*dA*d[5mC]*eG*eG*eA*eA*eG) [compound 422266]”, the “% Inhibition” value (Table 6, 50 nM) is reported as 13%.
In the case of “416427 (antisense e[5mC]*e[5mC]*e[5mC]*eT*eG*dA*dA*dG*d[5mC]*d[5mC]*d[5mC]*dA*dA*dG*d[5mC]*eA*eG*eA*eA*eG) [compound 416427]”, the “% Inhibition” value [3] is reported as 5%.
“422264 (antisense e[5mC]*eG*dG*dA*dA*dG*dA*dA*dG*dG*dG*dA*d[5mC]*dG*dG*eA*eA*eG*eG*eT) [compound 422264]” was tested, and the “% Inhibition” value (Table 6, 50 nM) was 24%.
With “422139 (antisense eT*eT*e[5mC]*eT*eG*d[5mC]*dA*dG*dG*dA*dG*d[5mC]*dG*dG*d[5mC]*e[5mC]*eT*eA*eA*eA) [compound 422139]” the “% Inhibition of human Factor 7 mRNA levels” value was 66%.
In the case of “422114 (antisense e[5mC]*eG*e[5mC]*e[5mC]*eA*d[5mC]*d[5mC]*d[5mC]*dG*d[5mC]*d[5mC]*dG*dG*d[5mC]*dT*e[5mC]*eT*eG*e[5mC]*eT) [compound 422114]”, the “% Inhibition (human Factor 7 mRNA levels)” value [2] is reported as 50%.
In the case of “416467 (antisense e[5mC]*e[5mC]*e[5mC]*eT*eG*dG*d[5mC]*d[5mC]*d[5mC]*d[5mC]*dA*dG*d[5mC]*dT*dG*eA*e[5mC]*eG*eA*eT) [compound 416467]”, the “% Inhibition” value [3] is reported as 55%.
With “407898 (antisense e[5mC]*e[5mC]*eA*eG*e[5mC]*dA*dG*dA*dG*dA*dG*dT*dA*d[5mC]*d[5mC]*e[5mC]*e[5mC]*eT*e[5mC]*eG) [compound 407898]” the “% Inhibition” value [4] was 49%.
In the case of “422097 (antisense eG*eA*eG*eA*e[5mC]*dA*dA*dT*dG*dG*dT*d[5mC]*dA*dG*dG*eG*e[5mC]*eT*eG*eG) [compound 422097]”, the “% Inhibition (human Factor 7 mRNA levels)” value [1] is reported as 59%.
With “416497 (antisense e[5mC]*eG*eT*eG*e[5mC]*dA*dG*dG*dT*dG*dT*dT*dA*dA*dG*eG*eT*eG*eT*eG) [compound 416497]” the “% Inhibition” value [3] was 0%.
“416509 (antisense eA*eG*eG*eA*eG*d[5mC]*d[5mC]*d[5mC]*dG*dA*dG*dT*dT*d[5mC]*dT*eG*e[5mC]*eA*eG*eG) [compound 416509]” was tested, and the “% Inhibition of human Factor 7 mRNA levels” value was 60% and the “% Inhibition” value [3] was 56%.
For “407635 (antisense eT*eG*eG*e[5mC]*e[5mC]*d[5mC]*d[5mC]*dA*dG*d[5mC]*dT*dG*dA*d[5mC]*dG*eA*eT*eG*e[5mC]*e[5mC]) [compound 407635]”, the “% Inhibition” value [4] was 64%.
